Data: patent US20030134859A1 (SANKYO COMPANY, LIMITED, priority 2000, published 2003)

How the values were obtained:
Rat white adipocytes = experiment: Inhibition of the differentiation of adipocytes (Oil Red O); type: cell-based; conditions: Rattus norvegicus, Adipocyte, 120 h, 100 nM test compound; 5 days; Oil Red O ABS550; control = 100%, blank = 0%; Table 3; read-out: Rate of Differentiation (%)
Method: Rat white adipocytes contained in the white adipocyte culture kit purchased from HOKUDO were used. As the medium for proliferation and for differentiation-inducing, the medium contained in the white adipocyte culture kit purchased from HOKUDO was used. The cells in the present experiment were cultured in a CO2 incubator (37° C., 95% R.H., 5% CO2).
Immediately after arrival of the purchased cells, all medium for transportation was discarded and replaced with 5 ml of proliferation medium (/25 cm^2-flask) and the cells were cultured for one day. Then, a cell suspension was prepared with proliferation medium so as to be 83,000 cells/mL, and the cell suspension was plated into a type I 96-well collagen-coated microplate (SUMITOMO BAKELITE CO., ltd.) so as to be 5,000 cells/well (60 μL/well).
On the next day, all the proliferation medium was discarded and replaced with 147 μL/well of differentiation-inducing medium. Further, 1) in the group treated with the test compound, 3 μL/well of the solution, in which a test compound (100 μM) was dissolved in DMSO solution and diluted with differentiation-inducing medium by 20 times (final concentration of the test compound: 100 nM, final concentration of DMSO solution: 0.1% (v/v)), were added to the well where the cells were plated. 2) In the control group, 3 μL/well of DMSO solution that was diluted with differentiation-inducing medium by 20 times (final concentration of DMSO: 0.1% (v/v)) were added to the well where the cells were plated. Further, 3) in the blank group, 3 μL/well of DMSO solution that was diluted with differentiation-inducing medium by 20 times (final concentration: 0.1% (v/v)), was added to the blank well.
After culturing for 5 days, all differentiation-inducing medium was discarded and replaced with 60 μL of 10% (v/v) formaldehyde solution (for fixation) in each well and the cells were kept stationary for 20 min at room temperature. After this, the fixative solution was discarded and replaced with 60 μL of 0.2% (v/v) Triton X (Sigma-Aldrich Japan K. K.) solution in each well and kept stationary for 5 min at room temperature. Then all Triton X solution was discarded and replaced with 60 μL of 60% (v/v) isopropanol solution containing dissolved Oil Red O (Sigma-Aldrich Japan K. K.) so as to be 0.3%, which was adipose tissue staining solution, and the well was left stationary for 10 min at room temperature. After the adipose tissue staining solution was discarded, the well was washed twice with 60 JIL of 60% isopropanol solution. Then, 100 μL of the DMSO solution were added to each well and stirred for 5 min at room temperature, The absorbance was measured at 550 nm (ABS550) with a multi-plate reader (LabSystems), and the stained amount with Oil Red O was determined. The measured level at ABS550 in the control group was defined as 100%, while the level at ABS550 in the blank group was defined as 0%. The differentiation rate (%) of the adipocytes treated with the test compound was calculated.

leptin production = experiment: Enhancing activity for leptin production in adipocytes (ELISA); type: cell-based, rat; conditions: Rattus norvegicus, Adipocyte, 24 h, leptin concentration as % of control group, read-out: Facilitating activity to produce leptin; for activity at 0.1 µM: 100 nm; for activity at 0.01 µM: 10 nm
Method: Hanks solution was used for collection of adipose tissue. The Hanks solution was prepared by filtration of a mixed solution (pH: 7.5) of 120 mM NaCl, 4.8 mM KCl, 0.74 mM MgSO4, 0.30 mM Na2HPO4, 0.40 mM KH2PO4, 20 mM HEPES, 0.05% (w/v) glucose, 2% (w/v) BSA (Sigma-Aldrich Japan K. K., Cat. No. A7888), 0.95 mM CaCl2, 4.17 mM NaHCO3 and 1% (v/v) penicillin-streptomycin liquid (GIBCO BRL, Cat. No. 15140-122). The adipocytes were cultured in Dulbecco's modified Eagle's medium (GIBCO BRL, Cat. No. 11995-040) mixed with DMEM/F-12 (GIBCO BRL, Cat. No. 11320-033) at a ratio of 1:1, and added 0.2% (v/v) Hanks solution, 0.2 μg/L sodium selenite (GIBCO BRL, Cat. No. 13012-018), 0.002% (v/v) ethanolamine, 25 mM HEPES and 1% (v/v) penicillin-streptomycin liquid (GIBCO BRL, Cat. No. 15140-122). As many as possible of the other reagents used were special grade. In this experiment, the cells were cultured in a CO2 incubator (37° C., 95% humidity, 5% CO2).
Male Wistar Imamichi rats of 6 weeks old were sacrificed by bleeding following decapitation, and adipose tissue was removed from the epididymis and sectioned after the vessels were removed in warmed Hanks solution at 37° C. and were weighed. One (1) mL of Hanks solution containing 10 mg collagenase (Wako Pure Chemical Industries, Ltd., 034-10533) was added to the adipose tissue prepared. The solution was transferred into a tube having a volume of 50 mL, and the cells were evenly dispersed by incubation under gentle shaking at 37° C., 90 rpm, for 50 min. Then 20 mL of Hanks solution were added and filtrated through Nylon-mesh with a mesh diameter of 200 μm for removal of undigested tissue pieces. The floating adipocytes were separated from sediments and substances located in the lower layer by centrifugation at 1,000 rpm for 1 min at room temperature. The sediment and 22 mL of the low layer were pulled out with a probe, and the floating adipocytes were recovered. This procedure was repeated twice with Hanks solution and for 4 times with the culture medium. After these procedures the adipocytes were suspended in the culture medium at a volume of 60 mL per 1 g of the adipose tissue weighed previously. 100 μL of the suspended solution were plated in each well of a 96-well microplate (ASAHI TECHNO GLASS Corp.) In the group treated with the test compound, 1 μL/well of DMSO solution containing the dissolved the test compound at concentrations of 200 μM, 20 μM, 2 μM and 0.2 μM (final concentrations of the test compound: 1 μM, 100 nM, 10 nM and 1 nM, respectively) was plated in each of the well. In the control group, 1 μL/well of DMSO (final concentration: 0.1% (v/v)) was plated in each well. The plate was placed stationary in a CO2 incubator for 1 hr or longer, and the contents in the solution were equilibrated at 37° C. After they were equilibrated, the solution in each well was stirred with a magnetic stirrer in a water bath and the suspended solution maintained at 37° C. was plated into each well of the plate at 100 μL/well. After incubation of the cells for 24 hr, the suspended solution of cells was filtrated through a filter for the microplate, MultiScreen (MILLOPORE, MDV-N65). The concentration of leptin in the filtrated solution was determined with ELISA methods by using a Rat Leptin Determination Kit-IBL (Immuno-Biological Laboratories Co., Ltd., Cat. No. 17195). The facilitating activity of the compound to produce leptin was calculated from the following equation based on the concentration of leptin determined.
Facilitating Activity of the Compound to Produce Leptin (%)=(A/B)×100
A: Concentration of Leptin in the Treated Group with the Test Compound.
B: Concentration of Leptin in the Control Group.

Compound	activity at 0.1 µM (Rat white adipocytes) [%]	activity at 1 µM (leptin production) [%]	activity at 0.1 µM (leptin production) [%]	activity at 0.01 µM (leptin production) [%]
CCCCCCN(CCCCC)c1ccc(-c2ccc(NC(=O)c3cc([N+](=O)[O-])ccc3Cl)cc2)cc1 [Example 200, N-[4-[4-(N-Hexyl-N-pentylamino)phenyl]phenyl]-(2-chloro-5-nitrophenyl)carboxamide]	44.1	117	–	–
CCCCCCN(CCCCCC)c1ccc(-c2ccc(NC(=O)c3cc([N+](=O)[O-])ccc3Cl)cc2)cc1 [Example 201, N-[4-[4-(N,N-Dihexylamino)phenyl]phenyl]-(2-chloro-5-nitrophenyl)carboxamide]	46.9	112	114	–
CCCCCNc1ccc(-c2ccc(NC(=O)c3cc([N+](=O)[O-])ccc3Cl)cc2)cc1 [Example 202, N-[4-[4-(N-Pentylamino)phenyl]phenyl]-(2-chloro-5-nitrophenyl)carboxamide]	35.4	137	133	136
CCCCCCCCN(C)c1ccc(-c2ccc(NC(=O)c3cc([N+](=O)[O-])ccc3Cl)cc2)cc1 [Example 226, N-[4-[4-(N-Methyl-N-octylamino)phenyl]phenyl]-(2-chloro-5-nitrophenyl)carboxamide]	42	–	–	111
CNC(=S)Nc1ccc(-c2ccc(NC(=O)c3cc([N+](=O)[O-])ccc3Cl)cc2)cc1 [Example 236, N-[4-[4-(Methylaminothiocarbonylamino)phenyl]phenyl]-(2-chloro-5-nitrophenyl)carboxamide]	47.1	–	–	112
O=C(Nc1ccccc1)Nc1ccc(-c2ccc(NC(=O)c3cc([N+](=O)[O-])ccc3Cl)cc2)cc1 [Example 242, N-[4-[4-(Phenylaminocarbonylamino)phenyl]phenyl]-(2-chloro-5-nitrophenyl)carboxamide]	57.6	–	111	–
O=C(Nc1ccc(-c2ccc(NC(=O)c3cc([N+](=O)[O-])ccc3Cl)cc2)cc1)Nc1ccc(F)cc1F [Example 249, N-[4-[4-[(2,4-Difluorophenyl)aminocarbonylamino]phenyl]phenyl]-(2-chloro-5-nitrophenyl)carboxamide]	61.9	111	113	114
NC(=O)NCCc1ccc(NC(=O)c2cc([N+](=O)[O-])ccc2Cl)cc1 [Example 270, N-[4-(2-Aminocarbonylaminoethyl)phenyl]-(2-chloro-5-nitrophenyl)carboxamide]	45.9	–	–	118
